Measurements reported in PubChem BioAssay (NCI).
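Interpolation was linear, between the two tested concentrations surrounding the appropriate level; five concentrations were tested over 48 hours in 96-well plates. The concentration for full growth arrest is given as TGI.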

Tests used:
Experiment in all cases: NCI tumour cell line growth inhibition, 48 h
[1] = tested on: 786-0 renal
[2] = tested on: A498 renal
[3] = tested on: A549 NSCLC
[4] = tested on: ACHN renal
[5] = tested on: CCRF-CEM leukemia
[6] = tested on: COLO 205 colon
[7] = tested on: DLD-1 colon
[8] = tested on: DMS 114 small cell lung
[9] = tested on: EKVX NSCLC
[10] = tested on: HCC-2998 colon
[11] = tested on: HCT-116 colon
[12] = tested on: HL-60(TB) leukemia
[13] = tested on: HOP-62 NSCLC
[14] = tested on: HOP-92 NSCLC
[15] = tested on: HT29 colon
[16] = tested on: IGROV1 ovarian
[17] = tested on: K-562 leukemia
[18] = tested on: KM12 colon
[19] = tested on: KM20L2 colon
[20] = tested on: LOX IMVI melanoma
[21] = tested on: LXFL 529 NSCLC
[22] = tested on: M14 melanoma
[23] = tested on: M19-MEL melanoma
[24] = tested on: MALME-3M melanoma
[25] = tested on: MOLT-4 leukemia
[26] = tested on: NCI-H226 lung
[27] = tested on: NCI-H23 lung
[28] = tested on: NCI-H460 lung
[29] = tested on: NCI-H522 lung
[30] = tested on: OVCAR-3 ovarian
[31] = tested on: OVCAR-5 ovarian
[32] = tested on: OVCAR-8 ovarian
[33] = tested on: RPMI-8226 leukemia
[34] = tested on: RXF 393 renal
[35] = tested on: RXF-631 renal
[36] = tested on: SF-268 CNS
[37] = tested on: SF-295 CNS
[38] = tested on: SF-539 CNS
[39] = tested on: SK-MEL-2 melanoma
[40] = tested on: SK-MEL-28 melanoma
[41] = tested on: SK-MEL-5 melanoma
[42] = tested on: SK-OV-3 ovarian
[43] = tested on: SNB-75 CNS
[44] = tested on: SNB-78 CNS
[45] = tested on: SW-620 colon
[46] = tested on: TK-10 renal
[47] = tested on: U251 CNS
[48] = tested on: UACC-257 melanoma
[49] = tested on: UACC-62 melanoma
[50] = tested on: UO-31 renal
[51] = tested on: XF 498 CNS
[52] = tested on: HCT-15 colon
[53] = tested on: HOP-18 NSCLC
[54] = tested on: OVCAR-4 ovarian
[55] = tested on: SN12C renal
[56] = tested on: SNB-19 CNS

COc1ccc2nc(NC(=O)C(=O)C(C(=O)c3ccccc3-c3ccccc3)C3OC(=O)c4ccccc43)sc2c1 (centres undefined)
TGI [1]: 31.7 µM | TGI [2]: 40.8 µM | TGI [3]: 76.4 µM | TGI [4]: 73.9 µM | TGI [5]: > 100 µM | TGI [6]: 39.6 µM | TGI [7]: 40.9 µM | TGI [8]: 37.2 µM | TGI [9]: 45.9 µM | TGI [10]: 29.1 µM | TGI [11]: 27.6 µM | TGI [12]: 72.5 µM | TGI [13]: 35.3 µM | TGI [14]: 35.2 µM | TGI [15]: > 100 µM | TGI [16]: 71.7 µM | TGI [17]: > 100 µM | TGI [18]: 54.9 µM | TGI [19]: 50.1 µM | TGI [20]: 35.4 µM | TGI [21]: 26.3 µM | TGI [22]: 41.5 µM | TGI [23]: 31 µM | TGI [24]: 27.6 µM | TGI [25]: 89.5 µM | TGI [26]: 21.2 µM | TGI [27]: 30.5 µM | TGI [28]: 50.2 µM | TGI [29]: 23.8 µM | TGI [30]: 48.2 µM | TGI [31]: 35.9 µM | TGI [32]: 59.3 µM | TGI [33]: 51.9 µM | TGI [34]: 23.8 µM | TGI [35]: 71.6 µM | TGI [36]: 63.2 µM | TGI [37]: > 100 µM | TGI [38]: 28.9 µM | TGI [39]: 28 µM | TGI [40]: 51 µM | TGI [41]: 31.1 µM | TGI [42]: 88 µM | TGI [43]: 35.1 µM | TGI [44]: > 100 µM | TGI [45]: 50.1 µM | TGI [46]: 48.9 µM | TGI [47]: 25.9 µM | TGI [48]: > 100 µM | TGI [49]: 34.3 µM | TGI [50]: 47.4 µM | TGI [51]: 45.7 µM

CC1=C(C(=O)CC(=O)C(=O)Nc2ccccc2)Sc2ccccc2N1
TGI [1]: > 100 µM | TGI [2]: > 100 µM | TGI [3]: > 100 µM | TGI [4]: > 100 µM | TGI [5]: > 100 µM | TGI [6]: > 100 µM | TGI [7]: > 100 µM | TGI [8]: > 100 µM | TGI [9]: > 100 µM | TGI [11]: > 100 µM | TGI [52]: > 100 µM | TGI [12]: > 100 µM | TGI [53]: > 100 µM | TGI [13]: > 100 µM | TGI [14]: > 100 µM | TGI [15]: > 100 µM | TGI [16]: > 100 µM | TGI [17]: > 100 µM | TGI [18]: > 100 µM | TGI [19]: > 100 µM | TGI [20]: > 100 µM | TGI [21]: > 100 µM | TGI [22]: > 100 µM | TGI [23]: > 100 µM | TGI [24]: > 100 µM | TGI [25]: > 100 µM | TGI [26]: > 100 µM | TGI [27]: > 100 µM | TGI [28]: > 100 µM | TGI [29]: > 100 µM | TGI [30]: > 100 µM | TGI [54]: > 100 µM | TGI [31]: > 100 µM | TGI [32]: > 100 µM | TGI [33]: > 100 µM | TGI [34]: > 100 µM | TGI [35]: > 100 µM | TGI [36]: > 100 µM | TGI [37]: > 100 µM | TGI [38]: > 100 µM | TGI [39]: > 100 µM | TGI [40]: > 100 µM | TGI [41]: > 100 µM | TGI [42]: > 100 µM | TGI [55]: > 100 µM | TGI [56]: > 100 µM | TGI [44]: > 100 µM | TGI [45]: > 100 µM | TGI [47]: > 100 µM | TGI [48]: > 100 µM | TGI [49]: > 100 µM | TGI [50]: > 100 µM | TGI [51]: > 100 µM
